Key:
human Kv3.4 = target: T1, human Kv3.4 (Homo sapiens, UniProt Q03721); experiment: Manual patch clamp electrophysiology, HEK-293 cells stably expressing human Kv3.4; assay type: cell-based; details: for hKv3.4 ECΔ30% increase: concentration increasing current by 30% at the −10 mV step; for hKv3.4 ECΔ5 mV: concentration that shifts activation threshold by 5 mV
T1 construct: expressed in transfected cells
T1 sequence (Q03721 1-635): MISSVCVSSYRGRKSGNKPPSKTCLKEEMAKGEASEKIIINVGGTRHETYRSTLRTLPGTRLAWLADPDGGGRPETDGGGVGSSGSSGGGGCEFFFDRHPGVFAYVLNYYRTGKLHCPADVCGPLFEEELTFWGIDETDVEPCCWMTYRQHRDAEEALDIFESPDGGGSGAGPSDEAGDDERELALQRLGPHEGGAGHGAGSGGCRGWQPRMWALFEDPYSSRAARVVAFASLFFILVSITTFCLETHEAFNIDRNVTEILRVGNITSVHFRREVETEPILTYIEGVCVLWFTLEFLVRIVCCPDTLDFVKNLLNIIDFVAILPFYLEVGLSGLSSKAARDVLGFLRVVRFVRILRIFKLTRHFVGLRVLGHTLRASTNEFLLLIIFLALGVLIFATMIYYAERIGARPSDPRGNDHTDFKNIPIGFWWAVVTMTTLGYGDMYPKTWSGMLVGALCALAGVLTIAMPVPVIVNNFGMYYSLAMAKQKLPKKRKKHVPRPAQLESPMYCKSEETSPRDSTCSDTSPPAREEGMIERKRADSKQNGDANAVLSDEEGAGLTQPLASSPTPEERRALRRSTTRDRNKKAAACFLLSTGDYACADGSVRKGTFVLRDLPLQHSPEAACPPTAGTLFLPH
Protocol: (§1) Manual Patch Clamp Electrophysiological Evaluation, hKv3.1, hKv3.2, hKv3.3, hKv3.4:
(§2) HEK-293 cells stably expressing human Kv3.1b, Kv3.2, Kv3.3 or Kv3.4 were used for the experiments.
(§3) Kv3.1b, Kv3.2: Cells were cultured in MEM medium supplemented with 10% Fetal Bovine Serum, 1% Penicillin/Streptomycin, 2 mM glutamine and 0.6 mg/mL geneticin. Cells were grown to 80-90% confluency at 37° C. and 5% CO2 Kv3.3 or Kv3.4: Cells were cultured in DMEM medium supplemented with 10% Fetal Bovine Serum, 500 ug/mL Geneticidin and 1% Penicillin/Streptomycin. Cells were grown to 80-90% confluency at 37° C. and 5% CO2.
(§4) On the day of the experiment the cells were detached by TrypLE and resuspended in culture medium. Cells were centrifuged, media removed and the cells were resuspended in extracellular buffer containing (in mM): 130 Na-gluconate, 20 NaCl, 4 KCl, 1 MgCl2, 1.8 CaCl2, 10 HEPES and 5 glucose, pH 7.3 adjusted with NaOH, 310-320 mOsm
(§5) Patch-clamp recordings were performed using a manual patch-clamp system (Axon Multiclamp 700B, Digidata 1440, pCLAMP 10, Molecular Devices Corporation) with a fast perfusion system (RSC-160 Rapid solution Changer, BioLogic). Whole-cell recordings were carried out using an intracellular solution containing (in mM): 100 K-gluconate, 40 KCl, 10 HEPES, 1 EGTA, 1 MgCl2, pH 7.2 adjusted with KOH, 290-300 mOsm. Cell membrane potentials were held at −80 mV and current voltage-relationship was generated by voltage steps (50 ms duration) from −100 mV to +10 mV (in 10 mV increments) and then back to −100 mV for 50 ms, with inter-sweep interval of 3 s. The peak current amplitude of −10 mV was monitored until stable (<5% change) by using one step voltage protocol. One IV protocol was run as baseline, then compound perfusion was stared and peak current stability was monitored with single step protocol prior to the IV protocol. Single concentrations were measured per cell. Acceptable cells had seal resistance >500 MOhm, Access resistance <10 MOhm, and leak current <200 pA.
(§6) Data analysis was performed using Clampfit (V10.2) in combination with Microsoft Excel™ (Redmond, Wash., USA). Current voltage relationships were plotted from the peak current (baseline subtracted) at the individual voltage steps normalized to the vehicle addition at 10 mV. The voltage threshold for channel activation was defined as 5% activation of the peak current at 10 mV in presence of vehicle. […] The concentration needed to shift the threshold 5 mV was readout from this curve (ECΔ5 mV), as well as the ability to increase the peak current at the −10 mV step (EC30% increase). […]

human Kv3.2 = target: T2, human Kv3.2 (Homo sapiens, UniProt Q96PR1); experiment: Manual patch clamp electrophysiology, HEK-293 cells stably expressing human Kv3.2; assay type: cell-based; details: for hKv3.2 ECΔ30% increase: concentration increasing current by 30% at the −10 mV step; for hKv3.2 ECΔ5 mV: concentration that shifts activation threshold by 5 mV
T2 construct: expressed in transfected cells
T2 sequence (Q96PR1 1-638): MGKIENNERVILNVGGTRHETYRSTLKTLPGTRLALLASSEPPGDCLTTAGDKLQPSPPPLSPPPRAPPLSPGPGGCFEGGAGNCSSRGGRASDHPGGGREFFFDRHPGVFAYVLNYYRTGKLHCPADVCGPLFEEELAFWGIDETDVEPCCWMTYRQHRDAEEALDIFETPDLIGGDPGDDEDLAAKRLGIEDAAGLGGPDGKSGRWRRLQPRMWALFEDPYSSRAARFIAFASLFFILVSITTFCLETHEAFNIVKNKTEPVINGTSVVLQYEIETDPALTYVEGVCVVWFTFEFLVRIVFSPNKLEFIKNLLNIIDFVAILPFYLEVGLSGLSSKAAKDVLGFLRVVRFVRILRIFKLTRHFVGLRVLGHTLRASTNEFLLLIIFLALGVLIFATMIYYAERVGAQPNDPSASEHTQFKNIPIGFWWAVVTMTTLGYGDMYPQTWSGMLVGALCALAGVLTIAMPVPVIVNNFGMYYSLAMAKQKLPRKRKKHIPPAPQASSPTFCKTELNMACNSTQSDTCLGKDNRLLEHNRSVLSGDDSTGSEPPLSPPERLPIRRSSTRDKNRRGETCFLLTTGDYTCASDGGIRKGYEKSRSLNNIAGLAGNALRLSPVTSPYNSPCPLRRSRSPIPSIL
Protocol: as §1, §2, §3, §4, §5, §6

[1] = Unbound fraction in plasma; assay type: in vitro ADME, rat

| hKv3.4 ECΔ30% increase (human Kv3.4) [µM] | hKv3.4 ECΔ5 mV (human Kv3.4) [µM] | hKv3.2 ECΔ30% increase (human Kv3.2) [µM] | hKv3.2 ECΔ5 mV (human Kv3.2) [µM] | fraction unbound ([1]; rat table footnote) | fraction unbound ([1]; rat PK table footnote) | Compound |
| --- | --- | --- | --- | --- | --- | --- |
| >30 | 14.4 | >30 | 6.0 | 0.12 | – | Cc1ccc(S(=O)(=O)n2ccc(C(=O)NCc3ncco3)c2)cc1 [Compound 86, 1-(4-methylbenzene-1-sulfonyl)-N-[(1,3-oxazol-2-yl)methyl]-1H-pyrrole-3-carboxamide] |
| >30 | >30 | 8.2 | 1.5 | – | 0.1 | Cc1cnc(CNC(=O)c2ccn(S(=O)(=O)c3ccc(F)cc3C)c2)cn1 [Compound 90, 1-(4-fluoro-2-methylbenzene-1-sulfonyl)-N-[(5-methylpyrazin-2-yl)methyl]-1H-pyrrole-3-carboxamide] |

From patent publication US20200131156A1, “ARYLSULFONYLPYROLECARBOXAMIDE DERIVATIVES AS Kv3 POTASSIUM CHANNEL ACTIVATORS” (H. Lundbeck A/S, priority 2018, published 2020)
